One data set deals with ERK1 (p44). As to the kind of experiment: ERK1 (p44) activation in NS20Y cells. The data set is classed as cell-based, mouse. The protocol:
Cell stimulation, immunoblotting, and immunoprecipitation: Cells or neurons are grown in 6-well or 12-well plates to 80-90% confluence. The cells are starved in serum-free DMEM overnight, and then incubated with receptor agonists at 37° C. for the indicated durations. In some experiments, signaling inhibitors are added 45 minutes before simulation. Incubation is terminated by placing the tissue culture cluster on ice and rapidly aspirating the medium, followed by the addition of ice-cold RIPA^+ buffer (50 mM Tris-HCl, pH 7.5, 150 mM NaCl, 1% NP-40, 0.5% deoxycholate, 0.1% SDS, 1 mM NaVO3, and protease inhibitor (Calbiochem, San Diego, Calif.)) and incubation for 15 minutes with shaking. After centrifugation (14,000×g at 4° C. for 15 minutes), the supernatant is collected and the protein concentration is measured and adjusted using RIPA^+ buffer. Samples (30 μl) with equal amounts of protein mixed with Laemmli loading buffer are denatured at 70° C. for 10 minutes and separated by SDS-PAGE. […] The proteins are transferred to PVDF membrane (Millipore), detected with the primary antibodies (including anti-active ERK; anti-p-Tyr clone 4G10, Upstate; anti-TH; anti-DAT, sigma, anti-β-tubulin, etc.) and visualized with the SuperSignal™ West Pico chemiluminescent kit (Pierce Biotechnology, Rockford, Ill.). The intensity of bands is quantified using ImageQuant™ 5.2 (Amersham). […]

Data set [1] has as its system primary dopaminergic neuron cultures. The data set can be described thus: Neuroprotection against MPP+ in primary dopaminergic neuron cultures. In kind it is cell-based, rat. The conditions noted are these: MPP+ 25 μM; A9 added before or after MPP+; TH staining. As to the method: Primary cultures of rat embryonic SNc neuron cultures were grown on treated 12-well plates (for dopamine uptake) or coverslips (for neuroprotection) for 10 days as described in the Examples section. In FIG. 6A, the neurons were treated with different concentrations of A9 for 6 days before dopamine uptake was measured. Data=mean±SD (n=3). In FIG. […] Half of the medium was changed with fresh A9 on day 14. The neurons were fixed on day 16 and stained for tyrosine hydroxylase (TH, green) and total-ERK (red). Images were captured with fluorescence microscopy at magnification×100.
The dopaminergic neurons that have been cultured on poly-D-lysine treated coverslips or 12-well cell culture plates for 10 days are treated with vehicle or A9 at 1 nM, 10 nM, 100 nM, or 1 μM for 7 days. […] Half of the medium is changed with fresh medium containing A9 at day 4. To test the involvement of ERK and PI3K, inhibitors (including PD98059, SL327, wortmannin, and LY294002) are added with A9. […] The amount of HSV used and the best time to do functional assays is determined. To count the TH-positive neurons, the neurons on coverslips are fixed, stained for both tyrosine hydroxylase (TH) and total-ERK (control) at the end of A9 treatment and imaged with a conventional or confocal fluorescence microscope. […]

The nature of another data set: Solubility of A9 stock. In kind it is physicochemical. The protocol: 5. Physical properties: A9 stock can be dissolved in ethanol, methylene chloride, or DMSO as high as 25 mg/ml. The stock of A9 can then be diluted in water or saline. The final concentration in saline can reach 10 mg/ml according to our experience. A9 is very stable in organic solvents and keeps its activity (indicated by its ability to stimulate ERK activation in NS20Y cells, data not shown) for 6 months at room temperature. […] In saline, its half-life was reported to be 4 days at 37° C. (Golumb, Atherosclerosis 125:171-182, 1996). […] A similar evaluation of the chemical nature of any tyrphostin can be used to determine if it is of use to induce neurite outgrowth and regeneration in a subject.

The test system of data set [2] is ERK. The data set can be described thus: ERK activation in SH-SY5Y cells. The data set is classed as cell-based, human. The protocol:
SH-SY5Y cells are treated with A9, NGF ([…]), or EGF (10 ng/ml) for different durations, including 5, 15, 30, 60, and 120 minutes, to generate time-response curves for A9, NGF, and EGF. The level of ERK activation is measured by immunoblotting for the active (phosphorylated) ERK. The time-point with the maximum ERK response determined above is chosen for immunoprecipitation studies to assess the activation of PI3K, PDK1, and PKB/Akt. Cells are lysed with RIPA^+ buffer and precipitated with polyclonal antibodies for PI3K, PDK1, and PKB/Akt, and then the presence of p-Tyr in the precipitates will be determined by immunoblotting with the specific p-Tyr monoclonal antibody 4G10 (Upstate).

For data set [3], the system named is ERK. As to the kind of experiment: ERK activation in the brain. The data set is classed as in vivo. As to conditions: observation, no data shown.
The conditions of data set [4]: Golomb et al. 1996; cited from earlier work.

“Also recorded” adds a separate entry of the source. Like-named read-outs stand apart in the source and are kept apart here.

Regarding `CC(C)(C)c1cc(C=C(C#N)C#N)cc(C(C)(C)C)c1O` [A9, tyrphostin A9], the “ERK1 (p44) activation” value in the data set with ERK1 (p44) is on record as “activated ERK1 (p44) the most”. Besides, in data set [1], the “Protective effect against neurotoxin MPP+” value is “robust protective effect; also recorded: neuroprotection against MPP^+”. In addition, the solubility in the data set “Solubility of A9 stock” (aqueous with cosolvent or surfactant or cyclodextrin, kinetic from dmso stock, stock diluted in saline, read-out: Final concentration in saline) was at least 10 mg/mL; in “Solubility of A9 stock” (organic solvent or mixture, in ethanol, methylene chloride, or DMSO, read-out: Solubility of stock), at most 25 mg/mL. Further, the “ERK activation in SH-SY5Y, indicated by use of MEK inhibitor PD98059” value in the data set with ERK [2] was “ERK is activated”. Moreover, the “ERK activation in the brain” value in the data set on ERK [3] is on record as “can cause ERK activation in the brain”. Further, the Side effects entry in data set [4] is recorded as “has not been shown to produce obvious side effects”.
